Test results as given in patent US20150139961A1, “Reprogramming Blood Cells to Pluripotent and Multipotent Stem Cells” (The Johns Hopkins University, priority 2009, published 2015).

Key:
[1] = test system: CB CD34+ cells; test: Reprogramming of cord blood CD34+ cells by EBNA1/OriP plasmids, TRA-1-60+ colonies at day 14; assay type: cell-based, human; settings: NaB 0.25 mM, with either vector combination
Description: In the first set of 3 experiments, the pEB-C5 and pEB-Tg plasmids were used in comparison with the Thomson/Yu combination #6 containing 3 plasmids. After expansion (˜5-flod) with cytokines for 4 days, CB CD34+ cells were transfected once and then cultured following the standard protocol of deriving human iPSCs. […] Transfected cells were cultured for 2 more days before transferring onto 6 wells coated with MEF feeder cells. At day 3, the ESC culture medium was used in the presence or absence of NaB (0.25 mM) or VPA (0.5 mM). After day 9, the MEF-derived conditioned medium (CM) was used to substitute plain ESC medium. […] At day 14, cultures can be stained live with the TRA-1-60 antibody. TRA-1-60+ colonies with ESC-like morphology were picked after counting all the colonies.
After thawing, CD34+ cells were cultured for 4 to 5 days under a serum-free medium (SFM): containing 50% IMDM with 50% Ham's F12 (Invitrogen), ITS supplement (insulin-transferrin-selenium and 5 mg/ml BSA), synthetic lipids, 50 ug/ml of ascorbic acid and 2 mM glutamine (all from Sigma). […]
The cell culture plates with sizable ESC-like colonies were incubated in 37° C. for 1 hour before medium was changed to fresh ESC medium or CM. TRA-1-60 positive colonies were identified under an inverted fluorescence microscope, and can be picked up within 1 day after staining for further expansion and characterization.

[2] = test system: CB MNCs; test: Reprogramming of cultured cord blood mononuclear cells by EBNA1/OriP plasmids; assay type: cell-based, human; settings: added to pEB-C5
Description: After thawing, frozen MNCs from CB and PB) were cultured in the SFM supplemented with the following cytokines and a hormone: SCF (50 ng/ml), IL-3 (10 ng/ml), EPO (2U/ml, R&D Systems), IGF-1 (40 ng/ml) and dexamethasone (1 uM, Sigma). The media were replenished at day 3 and 6. By day 8-9 when an overt sign of cell division was observed, cells were harvested for nucleofection as well for various analyses. Approximately 3.5-fold cells were obtained for CB at day 8 and 1.5-fold for PB MNC at day 9. After optimizing nucleofection of the cultured MNCs to achieve maximal cell survival and gene transfer, the inventor settled down with the same Human CD34 Cell solution [Nucleofector Kit VPA-1003] but with 2×10^6 cultured cells. The transfected MNCs were cultured in the same medium for days and then further reprogrammed on MEF feeder cells as described above with cultured CD34+ cells. […]
TRA-1-60 Live Staining for identifying fully reprogrammed clones: TRA-1-60 antibody (mouse IgM, used as 1:300 of MAB4360, Millipore) and Alexa555-conjugated anti-mouse IgM secondary antibody (1:500, Invitrogen) were diluted in ESC medium and added into reprogramming cell culture plates. […] TRA-1-60 positive colonies were identified under an inverted fluorescence microscope, and can be picked up within 1 day after staining for further expansion and characterization.

## CCCC(=O)[O-].[Na+] [NaB, Sodium butyrate]
[1]
  effect on number (and percentages) of TRA-1-60+ colonies: consistently enhance
[2]
  stimulatory effect on reprogramming: minimal
